Target: T1, DC-SIGN (Homo sapiens, UniProt Q9NNX6)
T1 sequence (Q9NNX6 254-404): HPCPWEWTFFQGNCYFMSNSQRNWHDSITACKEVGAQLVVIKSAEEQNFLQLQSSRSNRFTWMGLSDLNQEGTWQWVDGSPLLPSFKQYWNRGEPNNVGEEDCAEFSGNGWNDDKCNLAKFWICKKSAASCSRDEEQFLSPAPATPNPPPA
Test: 1H-15N HSQC NMR titration
Type: binding

- Kd: 4.1 ± 0.7 mM
Compound: C[C@@H]1OC(O)[C@@H](O)[C@H](O)[C@@H]1O (stereo partly shown) [compound 4, Fuc]

Reference: article PMC6646960 (ACS Chemical Biology, 2019)
